Results on 8 molecules are retold here after patent US9822147B2, “Methods of treating ophthalmic diseases using NPR-B agonists” (priority 2009, dated 2017).

Experiment [1] concerns human colon adenocarcinoma cells. To be noted: 1 mM ANP, within 24 h; cited from earlier work.
Another experiment concerns the target T1, NPR-B receptor (Mus musculus, UniProt Q6VVW5).
T1 construct: the only natriuretic receptor present on the cell surface was the NPR-B receptor; host or cells: AtT-20 pituitary tumor cells (endogenous receptor)
T1 sequence (Q6VVW5 17-1047): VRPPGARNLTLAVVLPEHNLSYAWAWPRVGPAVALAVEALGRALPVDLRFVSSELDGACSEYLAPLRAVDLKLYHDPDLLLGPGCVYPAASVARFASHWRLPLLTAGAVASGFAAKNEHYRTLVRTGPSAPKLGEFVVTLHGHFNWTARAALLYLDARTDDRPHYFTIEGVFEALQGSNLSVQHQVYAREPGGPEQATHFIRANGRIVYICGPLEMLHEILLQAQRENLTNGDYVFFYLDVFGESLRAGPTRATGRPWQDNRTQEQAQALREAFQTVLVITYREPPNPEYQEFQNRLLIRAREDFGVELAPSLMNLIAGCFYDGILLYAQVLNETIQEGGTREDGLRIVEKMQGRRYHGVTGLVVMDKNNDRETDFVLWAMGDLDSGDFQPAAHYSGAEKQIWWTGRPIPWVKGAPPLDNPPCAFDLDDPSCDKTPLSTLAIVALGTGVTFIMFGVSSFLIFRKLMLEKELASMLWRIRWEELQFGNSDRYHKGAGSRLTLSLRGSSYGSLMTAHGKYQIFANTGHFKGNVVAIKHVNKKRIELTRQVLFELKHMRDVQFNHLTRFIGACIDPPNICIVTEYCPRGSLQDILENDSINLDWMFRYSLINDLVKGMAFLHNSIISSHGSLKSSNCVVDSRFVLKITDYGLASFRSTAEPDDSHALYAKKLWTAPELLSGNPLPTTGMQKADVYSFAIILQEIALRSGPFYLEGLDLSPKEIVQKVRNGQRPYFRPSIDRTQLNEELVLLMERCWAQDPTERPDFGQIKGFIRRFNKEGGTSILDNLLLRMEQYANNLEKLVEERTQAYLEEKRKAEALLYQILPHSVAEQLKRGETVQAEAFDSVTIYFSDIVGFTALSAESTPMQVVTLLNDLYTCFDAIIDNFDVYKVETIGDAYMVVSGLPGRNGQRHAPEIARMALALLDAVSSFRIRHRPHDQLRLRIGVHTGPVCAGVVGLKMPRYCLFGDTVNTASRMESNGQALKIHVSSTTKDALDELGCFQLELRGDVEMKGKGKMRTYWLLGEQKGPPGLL
To be noted: AtT-20 cells; cited from earlier work.

The test system of another experiment is chondrocytes. The conditions noted are these: CNP 10 to 100 pM, at the highest dose; cited from earlier work.
Another experiment relates to rabbit eyes. Briefly: Efficacy in the rabbit: intraocular pressure (IOP) after a single topical ocular drop. The conditions noted are these: dose 300 ug topical ocular, single 30 μL drop, up to 4 hr post dose, 1% as suspension (+) or solution (++) per mark on label. It counts as in vivo. How it is done:
A single 30 μL drop of a test item formulation was administered to rabbit eyes (n=8 to 10).
Intraocular pressure (IOP) was assessed in each eye at 0 hr, just prior to dosing, and again hourly for up to 4 hr post dose. The efficacy of a given formulation was determined based on the difference between the pretreatment TOP readings at 0 hr and the post treatment readings. A maximum percent reduction in IOP greater than 15% was noted by the “+” symbol. A maximum IOP reduction of less than 15% was assigned the “−” symbol.

In experiment [2] the test system is human renal carcinoma cells. The conditions noted are these: 100 μM; cited from earlier work.
For experiment [3], the system named is small-cell lung cancer cells. To be noted: 100 μM; cited from earlier work.
In a further experiment the target is T2, NPR-B (Homo sapiens, UniProt P20594).
T2 construct: a functional assay using endogenously NPR-B expressing GTM-3 cells; endogenous in cells; host or cells: GTM-3 (human glaucoma trabecular meshwork cells)
T2 sequence (P20594 23-1047): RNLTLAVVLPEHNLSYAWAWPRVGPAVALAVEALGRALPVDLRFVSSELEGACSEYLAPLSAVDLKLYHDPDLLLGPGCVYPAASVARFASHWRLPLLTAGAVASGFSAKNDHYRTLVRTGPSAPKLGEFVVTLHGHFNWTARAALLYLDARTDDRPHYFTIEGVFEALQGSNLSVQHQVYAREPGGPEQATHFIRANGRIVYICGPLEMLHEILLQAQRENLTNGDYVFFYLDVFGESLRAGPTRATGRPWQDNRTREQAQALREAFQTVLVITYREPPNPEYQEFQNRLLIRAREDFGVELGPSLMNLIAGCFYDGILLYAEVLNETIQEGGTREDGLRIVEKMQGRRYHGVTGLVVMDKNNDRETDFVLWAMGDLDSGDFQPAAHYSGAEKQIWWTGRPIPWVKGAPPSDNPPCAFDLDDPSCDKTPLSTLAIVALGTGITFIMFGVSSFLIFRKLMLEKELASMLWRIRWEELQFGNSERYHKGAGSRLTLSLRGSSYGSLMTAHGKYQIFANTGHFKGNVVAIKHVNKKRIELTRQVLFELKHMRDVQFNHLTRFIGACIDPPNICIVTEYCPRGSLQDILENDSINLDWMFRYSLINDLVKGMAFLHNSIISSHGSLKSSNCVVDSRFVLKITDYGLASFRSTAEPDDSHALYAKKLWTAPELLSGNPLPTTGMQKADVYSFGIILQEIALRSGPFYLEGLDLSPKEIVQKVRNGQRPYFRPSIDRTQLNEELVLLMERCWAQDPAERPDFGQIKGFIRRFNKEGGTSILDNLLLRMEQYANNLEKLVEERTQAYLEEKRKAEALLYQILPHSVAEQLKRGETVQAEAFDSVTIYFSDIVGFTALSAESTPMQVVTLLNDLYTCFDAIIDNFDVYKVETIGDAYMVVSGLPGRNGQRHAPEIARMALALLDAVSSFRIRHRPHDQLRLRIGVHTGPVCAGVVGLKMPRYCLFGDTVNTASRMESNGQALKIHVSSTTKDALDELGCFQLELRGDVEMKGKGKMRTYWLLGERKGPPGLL
Briefly: NPR-B induced production of cyclic GMP in human glaucoma trabecular meshwork cells (GTM-3). It counts as cell-based. To be noted: group by EC50 and Emax (CNP = 100%); Table 4; read-out: Activity (group), NPR-B activation assayed with GTM-3 cells.

pEC50: −log10 of the molar value. Numbered stars: 1 amine (or outer) side, 2 acyl side, 3 side chain; on linkers, the order of the positions; unused ones are H or OH. Square brackets hold non-standard residues; d marks the D form. Peptide text beside a SMILES is read from it. * marks the point of attachment. Pro(4R-NH2) = N[C@H]1CN[C@H](C(=O)O)C1; X2 = O=C([C@H]1CCCN([*:1])C1)[*:2]; dDap(Me2) = CN(C)C[C@@H](N)C(=O)O; Hyp = O=C(O)[C@@H]1C[C@@H](O)CN1; NHcycloheptyl = C1CCCC(N*)CC1; NMeL = CN[C@@H](CC(C)C)C(=O)O; Octanoyl = CCCCCCCC(=O)*; Api = NC1(C(=O)O)CCNCC1

In the case of `CC[C@H](C)[C@@H]1NC(=O)[C@H](CCCNC(=N)N)NC(=O)[C@H](CC(=O)O)NC(=O)[C@H](CCSC)NC(=O)[C@H](CCCNC(=N)N)NC(=O)CNC(=O)CNC(=O)[C@H](Cc2ccccc2)NC(=O)[C@@H](NC(=O)[C@H](CO)NC(=O)[C@H](CO)NC(=O)[C@H](CCCNC(=N)N)NC(=O)[C@H](CCCNC(=N)N)NC(=O)[C@H](CC(C)C)NC(=O)[C@@H](N)CO)CSSC[C@@H](C(=O)N[C@@H](CC(N)=O)C(=O)N[C@@H](CO)C(=O)N[C@@H](Cc2ccccc2)C(=O)N[C@@H](CCCNC(=N)N)C(=O)N[C@@H](Cc2ccc(O)cc2)C(=O)O)NC(=O)CNC(=O)[C@H](CC(C)C)NC(=O)CNC(=O)[C@H](CO)NC(=O)[C@H](CCC(N)=O)NC(=O)[C@H](C)NC(=O)CNC1=O` [ANP, atrial natriuretic peptide], the “decrease in cell number” value in experiment [1] is “up to 97%”.

In the case of `CC[C@H](C)[C@@H]1NC(=O)[C@H](CCCNC(=N)N)NC(=O)[C@H](CC(=O)O)NC(=O)[C@H](CC(C)C)NC(=O)[C@H](CCCCN)NC(=O)[C@H](CC(C)C)NC(=O)CNC(=O)[C@H](Cc2ccccc2)NC(=O)[C@@H](NC(=O)CNC(=O)[C@H](CCCCN)NC(=O)[C@H](CO)NC(=O)[C@H](CC(C)C)NC(=O)CN)CSSC[C@@H](C(=O)O)NC(=O)CNC(=O)[C@H](CC(C)C)NC(=O)CNC(=O)[C@H](CO)NC(=O)[C@H](CCSC)NC(=O)[C@H](CO)NC(=O)CNC1=O` [CNP, C-type natriuretic peptide], the “stimulation of cGMP production” value on NPR-B receptor was “up to 200 fold”. Moreover, in the experiment with chondrocytes, the “increase in cellularity (chondrocyte proliferation)” value is listed as “up to 43%”. For the same molecule, the “RIOP, maximum percent reduction in IOP” value in the experiment on rabbit eyes is “− (− IOP reduction <15%)”. In experiment [2], the “decrease in cell number of human renal carcinoma cells” value was 10%. In experiment [3], the “decrease in the number of small-cell lung cancer cells” value was 39%.

Take `CCCCCCCC(=O)N1CCC[C@H](C(=O)N[C@@H](Cc2ccccc2)C(=O)N[C@H](CN(C)C)C(=O)N[C@@H](CC(C)C)C(=O)N2C[C@H](N)C[C@H]2C(=O)N(C)[C@@H](CC(C)C)C(=O)N[C@@H](CC(=O)O)C(=O)N[C@@H](CCCNC(=N)N)C(=O)N[C@H](C(N)=O)[C@@H](C)CC)C1` [JAL-1325, Occ-Sni-Phe-dap(Me2)-Leu-Tap-Nml-Asp-Arg-Ile-NH2] (Octanoyl-[X2]F[dDap(Me2)]L[Pro(4R-NH2)][NMeL]DRI-NH2): the pEC50 at NPR-B was > 6.00. The “RIOP, maximum percent reduction in IOP” value in the experiment on rabbit eyes is on record as “+ (+ IOP reduction >15%)”.

`CCCCCCCC(=O)N1CCC[C@H](C(=O)N[C@@H](Cc2ccccc2)C(=O)N[C@H](CC(C)C)C(=O)N[C@@H](CC(C)C)C(=O)N2C[C@H](O)C[C@H]2C(=O)N(C)[C@@H](CC(C)C)C(=O)N[C@@H](CC(=O)O)C(=O)N2CCC[C@H]2C(=O)NC2CCCCCC2)C1` [JAL-1512_02, Occ-Sni-Phe-leu-Leu-Hyp-Nml-Asp-Pro-Che] (Octanoyl-[X2]F[dL]L[Hyp][NMeL]DP-NHcycloheptyl): the pEC50 at NPR-B is > 6.00. Moreover, in the experiment with rabbit eyes, the “RIOP, maximum percent reduction in IOP” value is recorded as “+ (+ IOP reduction >15%)”.

Turning to `CCCCCCCC(=O)N1CCC[C@H](C(=O)N[C@@H](Cc2ccccc2)C(=O)NC2(C(=O)N[C@@H](CC(C)C)C(=O)N3C[C@H](O)C[C@H]3C(=O)N(C)[C@@H](CC(C)C)C(=O)N[C@@H](CC(=O)O)C(=O)N[C@@H](CCCNC(=N)N)C(=O)N[C@H](C(N)=O)[C@@H](C)CC)CCNCC2)C1` [JAL-1555, Occ-Sni-Phe-Apc-Leu-Hyp-Nml-Asp-Arg-Ile-NH2] (Octanoyl-[X2]F[Api]L[Hyp][NMeL]DRI-NH2), on NPR-B, the pEC50 was > 6.00. Further, the “RIOP, maximum percent reduction in IOP” value in the experiment with rabbit eyes is recorded as “+ (+ IOP reduction >15%)”.

For the molecule `CCCCCCCC(=O)N1CCC[C@H](C(=O)N[C@@H](Cc2ccccc2)C(=O)N[C@H](CC(C)C)C(=O)N[C@@H](CC(C)C)C(=O)N2C[C@H](N)C[C@H]2C(=O)N(C)[C@@H](CC(C)C)C(=O)N[C@H](C(=O)N2CCC[C@H]2C(=O)NC2CCCCCC2)C(C)C)C1` [JAL-1654, Occ-Sni-Phe-leu-Leu-Tap-Nml-Val-Pro-Che] (Octanoyl-[X2]F[dL]L[Pro(4R-NH2)][NMeL]VP-NHcycloheptyl), the pEC50 at NPR-B is > 6.00. Also, the “RIOP, maximum percent reduction in IOP” value in the experiment with rabbit eyes is recorded as “− (− IOP reduction <15%)”.

Take `CCCCCCCC(=O)N1CCC[C@H](C(=O)N[C@@H](Cc2ccccc2)C(=O)N[C@H](CC(C)C)C(=O)N[C@@H](CC(C)C)C(=O)N2C[C@H](N)C[C@H]2C(=O)N(C)[C@@H](CC(C)C)C(=O)N[C@H](C(=O)N[C@@H](CCCNC(=N)N)C(=O)NC2CCCCCC2)C(C)C)C1` [JAL-1729, Occ-Sni-Phe-leu-Leu-Tap-Nml-Val-Arg-Che] (Octanoyl-[X2]F[dL]L[Pro(4R-NH2)][NMeL]VR-NHcycloheptyl): the pEC50 on NPR-B is > 6.00. Besides, the “RIOP, maximum percent reduction in IOP” value with rabbit eyes was “+ (+ IOP reduction >15%)”.

`CCCCCCCC(=O)N1CCC[C@H](C(=O)N[C@@H](Cc2ccccc2)C(=O)N[C@H](CC(C)C)C(=O)N[C@@H](CC(C)C)C(=O)N2C[C@H](O)C[C@H]2C(=O)N(C)[C@@H](CC(C)C)C(=O)N[C@H](C(=O)N[C@@H](CCCNC(=N)N)C(=O)NC2CCCCCC2)C(C)C)C1` [JAL-1730, Occ-Sni-Phe-leu-Leu-Hyp-Nml-Val-Arg-Che] (Octanoyl-[X2]F[dL]L[Hyp][NMeL]VR-NHcycloheptyl): the pEC50 on NPR-B is > 6.00. The “RIOP, maximum percent reduction in IOP” value in the experiment with rabbit eyes is “+ (+ IOP reduction >15%)”.
